Source: article PMC5693942 (Scientific Reports, 2017)
≈ marks a conversion by molar mass, not a printed value. Read-outs that look alike come from different tables or passages of the source.

How the values were obtained:
[1] = Activated sludge simulating microcosms (degradation of FL, formation of NFL); assay type: physicochemical
Experimental: Activated sludge microcosm experiments were conducted in the dark and aerobic conditions. Three microcosm bioreactors were investigated in duplicate. They were filled with 2 L of fresh activated sludge collected from a local wastewater treatment plant. […] Dark conditions were simulated by covering up the flask with foil. Aerobic conditions were obtained using air from BOC air cylinder and a thorough mixing was maintained using magnetic stirrers. The experiment was 24 hours long. […] Collected samples were subsequently frozen until their analysis to prevent degradation of compounds.
The compounds studied are characterized as having low volatility and therefore volatilization was not considered as a potential removal pathway in studied microcosms. Photodegradation was also not considered (not relevant) under tested activated sludge conditions. Therefore the two important degradation mechanisms to consider were biodegradation and sorption to sludge. […] However, in this study, sorption equilibrium was assumed and therefore sorption could be considered negligible. This is because sorption is assumed to be fast when compared to biological degradation.
Several reports utilized pseudo-first-order kinetics for degradation of micropollutants in activated sludge reactors[48]–[50]. […] Pseudo-first order biodegradation rate k1 [L g^−1h^−1]

[2] = River water simulating microcosms (degradation of FL)
Daphnia magna = Daphnia magna acute 48 h immobilization assay (Daphtoxkit); assay type: in vivo; settings: for Average effect (N immobile, 5 daphnids per replicate): 48 h;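 as to Average effect (N immobile, 5 daphnids per replicate): test concentrations in mg per L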
Experimental: Six concentration levels (5 concentrations plus control, four replicate beakers for each concentrations, five individual for each beaker) were tested. […] Each experiment was repeated in triplicate.

Tetrahymena thermophila = test: microbe, parasite or virus in culture; assay type: cell-based
Experimental: The tests were performed in accordance with the protocols provided by the manufacturer. […] The tests were carried out in disposable spectrophotometric cells of 1 cm path-length, to enable the measurement of the optical density (OD) at 440 nm. […] This change in OD over the time period is used to quantify the degree of inhibition and subsequent calculation of the EC50. Each concentration was repeated in duplicate.

[3] = in vivo; cited from earlier work

Question: Which EF ([1]; 10 µg L-1 microcosm, time 0) does the source give for `NCCC(Oc1ccc(C(F)(F)F)cc1)c1ccccc1` (stereo not shown) [NFL, norfluoxetine] here?
Answer: 0.784

Question: And the EF ([1]; 10 µg L-1 microcosm, time 0.5)?
Answer: 0.663

Question: What about the EF ([1]; 10 µg L-1 microcosm, time 1) of the same compound?
Answer: 0.000

Question: And the EF ([1]; 10 µg L-1 microcosm, time 1.5)?
Answer: 0.887

Question: And the EF ([1]; 10 µg L-1 microcosm, time 2)?
Answer: 0.750

Question: And the EF ([1]; 10 µg L-1 microcosm, time 3)?
Answer: 0.839

Question: And the EF ([1]; 10 µg L-1 microcosm, time 5)?
Answer: 0.810

Question: What about the EF ([1]; 10 µg L-1 microcosm, time 8) of the same compound?
Answer: 0.856

Question: And the EF ([1]; 10 µg L-1 microcosm, time 12)?
Answer: 0.749

Question: What about the EF ([1]; 10 µg L-1 microcosm, time 24) of the same compound?
Answer: 0.752

Question: And the “enantiomeric fraction (EF)” value ([1]; 10 µg L^−1 reactor, after further slow removal)?
Answer: > 0.7

Question: What about the EF ([1]; 100 µg L-1 microcosm, time 0) of the same compound?
Answer: 0.833

Question: And the EF ([1]; 100 µg L-1 microcosm, time 0.5)?
Answer: 0.826

Question: And the EF ([1]; 100 µg L-1 microcosm, time 1)?
Answer: 0.858

Question: And the EF ([1]; 100 µg L-1 microcosm, time 1.5)?
Answer: 0.872

Question: What about the EF ([1]; 100 µg L-1 microcosm, time 2) of the same compound?
Answer: 0.848

Question: And the EF ([1]; 100 µg L-1 microcosm, time 3)?
Answer: 0.852

Question: And the EF ([1]; 100 µg L-1 microcosm, time 5)?
Answer: 0.851

Question: And the EF ([1]; 100 µg L-1 microcosm, time 8)?
Answer: 0.843

Question: And the EF ([1]; 100 µg L-1 microcosm, time 12)?
Answer: 0.864

Question: What about the EF ([1]; 100 µg L-1 microcosm, time 24) of the same compound?
Answer: 0.794

Question: And the “enantiomeric fraction (EF)” value ([1]; 100 µg L^−1 microcosm)?
Answer: > 0.7

Question: What about the EF ([2]; DAR (dark abiotic), day 5) of the same compound?
Answer: 0.000

Question: What about the EF ([2]; DBR (dark biotic), day 1) of the same compound?
Answer: 0.000

Question: What about the EF ([2]; DBR (dark biotic), day 3) of the same compound?
Answer: 0.333

Question: What about the EF ([2]; DBR (dark biotic), day 5) of the same compound?
Answer: 0.417

Question: What about the EF ([2]; LAR (light abiotic), day 2) of the same compound?
Answer: 0.000

Question: What about the EF ([2]; LAR (light abiotic), day 3) of the same compound?
Answer: 0.358

Question: And the EF ([2]; LAR (light abiotic), day 4)?
Answer: 0.250

Question: And the EF ([2]; LAR (light abiotic), day 5)?
Answer: 0.000

Question: What about the EF ([2]; LAR (light abiotic), day 8) of the same compound?
Answer: 0.000

Question: And the EF ([2]; LAR (light abiotic), day 9)?
Answer: 0.000

Question: And the EF ([2]; LAR (light abiotic), day 10)?
Answer: 0.000

Question: And the EF ([2]; LAR (light abiotic), day 11)?
Answer: 0.000

Question: What about the EF ([2]; LAR (light abiotic), day 12) of the same compound?
Answer: 0.225

Question: What about the EF ([2]; LAR (light abiotic), day 15) of the same compound?
Answer: 0.000

Question: What about the EF ([2]; LAR (light abiotic), day 16) of the same compound?
Answer: 0.225

Question: And the EF ([2]; LBR (light biotic), day 1)?
Answer: 0.000

Question: And the EF ([2]; LBR (light biotic), day 2)?
Answer: 0.000

Question: What about the EF ([2]; LBR (light biotic), day 3) of the same compound?
Answer: 0.292

Question: And the EF ([2]; LBR (light biotic), day 5)?
Answer: 0.292

Question: Which results are given for `NCC[C@H](Oc1ccc(C(F)(F)F)cc1)c1ccccc1` [(S)-NFL]?
Answer: Average effect (N immobile, 5 daphnids per replicate) (Daphnia magna; concentration 0.5): 0.25; Average effect (N immobile, 5 daphnids per replicate) (Daphnia magna; concentration 1.5): 1; Average effect (N immobile, 5 daphnids per replicate) (Daphnia magna; concentration 5): 4; Average effect (N immobile, 5 daphnids per replicate) (Daphnia magna; concentration 16): 5; Average effect (N immobile, 5 daphnids per replicate) (Daphnia magna; concentration 50): 5; EC50 (Daphnia magna; Daphnia magna, D. magna, this study, read-out: EC50_48h -immobilization): 2.8 µg/mL (≈ 9.48 µM); times more toxic than (S)-FL (Tetrahymena thermophila; Tetrahymena thermophila): 10 ×; EC50 (Tetrahymena thermophila; Tetrahymena thermophila, T. thermophila, this study, read-out: EC50_24h -growth): 3.8 µg/mL (≈ 12.9 µM); EC50 (Tetrahymena thermophila; Tetrahymena thermophila, definitive test, read-out: 24hEC50): 4.48 µg/mL (≈ 15.2 µM); EC50 (Tetrahymena thermophila; Tetrahymena thermophila, range test, read-out: 24hEC50): 1.98 µg/mL (≈ 6.71 µM); % I (percentage inhibition) (Tetrahymena thermophila; definitive test, conc. 0.093): 7.356%; % I (percentage inhibition) (Tetrahymena thermophila; definitive test, conc. 0.279): 12.473%; % I (percentage inhibition) (Tetrahymena thermophila; definitive test, conc. 9.302): 28.891%; % I (percentage inhibition) (Tetrahymena thermophila; definitive test, conc. 15.352): 47.228%; % I (percentage inhibition) (Tetrahymena thermophila; definitive test, conc. 24.562): 80.171%; % I (percentage inhibition) (Tetrahymena thermophila; definitive test, conc. 50.660): 101.066%; % I (percentage inhibition) (Tetrahymena thermophila; definitive test, conc. 76.758): 104.371%; % I (percentage inhibition) (Tetrahymena thermophila; range test, conc. 0.005): 34.102%; % I (percentage inhibition) (Tetrahymena thermophila; range test, conc. 0.050): 7.524%; % I (percentage inhibition) (Tetrahymena thermophila; range test, conc. 0.500): 10.316%; % I (percentage inhibition) (Tetrahymena thermophila; range test, conc. 5.000): 39.684%; % I (percentage inhibition) (Tetrahymena thermophila; range test, conc. 50.000): 105.825%; Concentration ([1]; 10 µg L-1 microcosm, time 0): 0.127 ± 0.015 µg/L; Concentration ([1]; 10 µg L-1 microcosm, time 0.5): 0.057 ± 0.006 µg/L; Concentration ([1]; 10 µg L-1 microcosm, time 1.5): 0.010 ± 0.000 µg/L; Concentration ([1]; 10 µg L-1 microcosm, time 2): 0.151 ± 0.068 µg/L; Concentration ([1]; 10 µg L-1 microcosm, time 3): 0.222 ± 0.038 µg/L; Concentration ([1]; 10 µg L-1 microcosm, time 5): 0.384 ± 0.053 µg/L; Concentration ([1]; 10 µg L-1 microcosm, time 8): 0.315 ± 0.016 µg/L; Concentration ([1]; 10 µg L-1 microcosm, time 12): 0.562 ± 0.219 µg/L; Concentration ([1]; 10 µg L-1 microcosm, time 24): 0.510 ± 0.059 µg/L; Concentration ([1]; 100 µg L-1 microcosm, time 0): 0.553 ± 0.146 µg/L; Concentration ([1]; 100 µg L-1 microcosm, time 0.5): 0.538 ± 0.149 µg/L; Concentration ([1]; 100 µg L-1 microcosm, time 1): 0.737 ± 0.154 µg/L; Concentration ([1]; 100 µg L-1 microcosm, time 1.5): 0.981 ± 0.052 µg/L; Concentration ([1]; 100 µg L-1 microcosm, time 2): 1.890 ± 0.622 µg/L; Concentration ([1]; 100 µg L-1 microcosm, time 3): 2.515 ± 1.049 µg/L; Concentration ([1]; 100 µg L-1 microcosm, time 5): 3.535 ± 1.300 µg/L; Concentration ([1]; 100 µg L-1 microcosm, time 8): 3.844 ± 1.117 µg/L; Concentration ([1]; 100 µg L-1 microcosm, time 12): 5.346 ± 0.464 µg/L; Concentration ([1]; 100 µg L-1 microcosm, time 24): 5.046 ± 0.415 µg/L; Concentration ([2]; DBR (dark biotic), day 3): 1 ± 0 pg/mL; Concentration ([2]; DBR (dark biotic), day 5): 1 ± 0 pg/mL; Concentration ([2]; LAR (light abiotic), day 3): 2 ± 1 pg/mL; Concentration ([2]; LAR (light abiotic), day 4): 1 ± 0 pg/mL; Concentration ([2]; LAR (light abiotic), day 12): 2 ± 1 pg/mL; Concentration ([2]; LAR (light abiotic), day 16): 1 ± 0 pg/mL; Concentration ([2]; LBR (light biotic), day 3): 1 ± 0 pg/mL; Concentration ([2]; LBR (light biotic), day 5): 1 ± 0 pg/mL

Question: Which “excreted in the urine as this species” value [3] does the source give for NFL glucuronide here?
Answer: 8.2%
